Test system: marginal ear vein of a rabbit
Test: vascular irritation assay
Type: in vivo
Conditions: control group, administered into the ear vein for 3 days
Procedure: The vascular irritation assay using inclusion complex of butylphthalide with hydroxypropyl-β-cyclodextrin is provided as follows:
Eight rabbits were divided into two groups, namely, test group and control group. For the test group, 2.45 g/kg of the inclusion complex together with 40 ml of 5% glucose were instilled via the marginal ear vein of a rabbit at the rate of 1.5 ml/min. The administration was once per day and lasted for 3 days. […] The administration lasted for 3 days.

With `CC(=O)O` [10% acetic acid, acetic acid] the “vascular irritation (topical findings)” value was “topical hyperaemia, thickening, and exudation”.

— patent US7678776B2, “Inclusion complexes of butylphthalide with cyclodextrin or its derivatives, a process for their preparation and the use thereof” (Shijiazhuang Pharma. Group Zhongqi Pharmaceutical …, priority 2002, dated 2010)
